Assays:
[1] = target: Cyclin-dependent kinase 14 (Homo sapiens) (UniProt O94921)
[2] = system: Epidermal growth factor receptor (Homo sapiens), P00533 [T790M]
[3] = target: Serine/threonine-protein kinase LATS2 (Homo sapiens) (UniProt Q9NRM7)
[4] = target: Mast/stem cell growth factor receptor Kit (Homo sapiens) (UniProt P10721)
[5] = target: Protein kinase C delta type (Homo sapiens) (UniProt Q05655)
[6] = system: Proto-oncogene tyrosine-protein kinase receptor Ret (Homo sapiens), P07949 [M918T]
Proto-oncogene tyrosine-protein kinase receptor Ret (Homo sapiens), P07949 [M918T], sequence (P07949 whole entry M918T): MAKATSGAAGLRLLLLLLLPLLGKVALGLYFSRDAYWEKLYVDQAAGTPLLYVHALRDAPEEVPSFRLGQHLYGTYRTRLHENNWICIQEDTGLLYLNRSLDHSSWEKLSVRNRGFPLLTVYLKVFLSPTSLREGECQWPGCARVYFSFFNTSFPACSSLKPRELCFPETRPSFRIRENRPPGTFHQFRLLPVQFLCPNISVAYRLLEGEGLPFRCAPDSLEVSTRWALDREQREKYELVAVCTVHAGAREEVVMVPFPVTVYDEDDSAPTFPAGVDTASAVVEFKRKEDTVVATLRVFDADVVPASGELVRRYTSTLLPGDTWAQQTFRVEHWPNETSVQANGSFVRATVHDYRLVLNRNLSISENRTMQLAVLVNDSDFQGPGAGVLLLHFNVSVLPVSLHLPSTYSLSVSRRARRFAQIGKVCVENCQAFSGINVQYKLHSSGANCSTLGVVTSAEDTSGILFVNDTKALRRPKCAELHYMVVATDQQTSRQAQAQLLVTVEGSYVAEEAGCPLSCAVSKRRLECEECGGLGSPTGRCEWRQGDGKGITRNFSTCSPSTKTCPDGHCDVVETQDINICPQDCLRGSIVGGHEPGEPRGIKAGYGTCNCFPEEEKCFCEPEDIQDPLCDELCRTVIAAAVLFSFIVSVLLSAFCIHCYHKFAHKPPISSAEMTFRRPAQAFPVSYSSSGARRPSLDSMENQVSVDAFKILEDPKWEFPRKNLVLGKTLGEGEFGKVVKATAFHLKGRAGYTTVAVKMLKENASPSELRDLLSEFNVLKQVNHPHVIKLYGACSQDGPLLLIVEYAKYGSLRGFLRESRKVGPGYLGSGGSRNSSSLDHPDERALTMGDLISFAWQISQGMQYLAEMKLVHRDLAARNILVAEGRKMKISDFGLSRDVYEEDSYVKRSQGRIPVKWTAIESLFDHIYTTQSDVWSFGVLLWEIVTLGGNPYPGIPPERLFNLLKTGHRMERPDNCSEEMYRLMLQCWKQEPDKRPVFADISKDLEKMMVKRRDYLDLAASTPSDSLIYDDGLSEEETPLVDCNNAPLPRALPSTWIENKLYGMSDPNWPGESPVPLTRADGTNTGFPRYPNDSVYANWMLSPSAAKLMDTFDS

[7] = target: Serine/threonine-protein kinase PknB (Mycobacterium tuberculosis) (UniProt P9WI81)
[8] = target: MAP/microtubule affinity-regulating kinase 3 (Homo sapiens) (UniProt P27448)
[9] = target: Mitogen-activated protein kinase 10 (Homo sapiens) (UniProt P53779)
[10] = target: Interleukin-1 receptor-associated kinase 4 (Homo sapiens) (UniProt Q9NWZ3)
[11] = target: Protein-tyrosine kinase 6 (Homo sapiens) (UniProt Q13882)
[12] = target: Vascular endothelial growth factor receptor 2 (Homo sapiens) (UniProt P35968)
Vascular endothelial growth factor receptor 2 (Homo sapiens), sequence (P35968 whole entry): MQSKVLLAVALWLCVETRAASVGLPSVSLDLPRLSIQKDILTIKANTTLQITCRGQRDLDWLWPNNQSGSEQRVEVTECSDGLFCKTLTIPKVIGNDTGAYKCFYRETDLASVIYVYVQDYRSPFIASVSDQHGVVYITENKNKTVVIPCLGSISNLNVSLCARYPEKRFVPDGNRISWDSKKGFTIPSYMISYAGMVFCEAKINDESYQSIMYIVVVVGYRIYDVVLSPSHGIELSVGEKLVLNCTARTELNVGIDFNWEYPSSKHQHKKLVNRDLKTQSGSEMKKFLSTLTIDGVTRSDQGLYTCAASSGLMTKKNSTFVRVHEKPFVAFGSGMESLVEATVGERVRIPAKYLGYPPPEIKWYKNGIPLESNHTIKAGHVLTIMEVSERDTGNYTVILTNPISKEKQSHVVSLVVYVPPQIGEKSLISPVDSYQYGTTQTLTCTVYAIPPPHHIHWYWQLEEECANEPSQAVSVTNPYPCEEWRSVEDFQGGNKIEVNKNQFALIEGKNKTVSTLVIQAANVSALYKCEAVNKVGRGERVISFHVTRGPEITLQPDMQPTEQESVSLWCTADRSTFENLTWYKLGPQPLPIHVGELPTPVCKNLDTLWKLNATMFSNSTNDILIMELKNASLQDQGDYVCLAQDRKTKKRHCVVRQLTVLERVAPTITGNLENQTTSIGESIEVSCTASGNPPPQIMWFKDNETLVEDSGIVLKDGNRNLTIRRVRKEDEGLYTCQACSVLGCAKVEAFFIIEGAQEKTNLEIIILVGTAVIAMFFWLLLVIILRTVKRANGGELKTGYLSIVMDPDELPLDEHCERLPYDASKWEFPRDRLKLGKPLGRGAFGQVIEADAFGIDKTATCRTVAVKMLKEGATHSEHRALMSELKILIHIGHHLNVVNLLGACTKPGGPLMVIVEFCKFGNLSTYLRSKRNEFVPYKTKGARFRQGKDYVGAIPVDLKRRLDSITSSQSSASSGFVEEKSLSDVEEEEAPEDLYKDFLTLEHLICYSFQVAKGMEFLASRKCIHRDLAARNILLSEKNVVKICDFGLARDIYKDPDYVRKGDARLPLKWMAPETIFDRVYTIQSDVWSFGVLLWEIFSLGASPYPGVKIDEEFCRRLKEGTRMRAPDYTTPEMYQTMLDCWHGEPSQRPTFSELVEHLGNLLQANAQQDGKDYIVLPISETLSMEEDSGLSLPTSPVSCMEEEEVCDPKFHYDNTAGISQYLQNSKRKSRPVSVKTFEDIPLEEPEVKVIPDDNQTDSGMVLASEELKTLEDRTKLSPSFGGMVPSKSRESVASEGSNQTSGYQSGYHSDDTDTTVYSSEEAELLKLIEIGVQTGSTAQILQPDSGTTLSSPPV

[13] = target: Hormonally up-regulated neu tumor-associated kinase (Homo sapiens) (UniProt P57058)
Hormonally up-regulated neu tumor-associated kinase (Homo sapiens), sequence (P57058 whole entry): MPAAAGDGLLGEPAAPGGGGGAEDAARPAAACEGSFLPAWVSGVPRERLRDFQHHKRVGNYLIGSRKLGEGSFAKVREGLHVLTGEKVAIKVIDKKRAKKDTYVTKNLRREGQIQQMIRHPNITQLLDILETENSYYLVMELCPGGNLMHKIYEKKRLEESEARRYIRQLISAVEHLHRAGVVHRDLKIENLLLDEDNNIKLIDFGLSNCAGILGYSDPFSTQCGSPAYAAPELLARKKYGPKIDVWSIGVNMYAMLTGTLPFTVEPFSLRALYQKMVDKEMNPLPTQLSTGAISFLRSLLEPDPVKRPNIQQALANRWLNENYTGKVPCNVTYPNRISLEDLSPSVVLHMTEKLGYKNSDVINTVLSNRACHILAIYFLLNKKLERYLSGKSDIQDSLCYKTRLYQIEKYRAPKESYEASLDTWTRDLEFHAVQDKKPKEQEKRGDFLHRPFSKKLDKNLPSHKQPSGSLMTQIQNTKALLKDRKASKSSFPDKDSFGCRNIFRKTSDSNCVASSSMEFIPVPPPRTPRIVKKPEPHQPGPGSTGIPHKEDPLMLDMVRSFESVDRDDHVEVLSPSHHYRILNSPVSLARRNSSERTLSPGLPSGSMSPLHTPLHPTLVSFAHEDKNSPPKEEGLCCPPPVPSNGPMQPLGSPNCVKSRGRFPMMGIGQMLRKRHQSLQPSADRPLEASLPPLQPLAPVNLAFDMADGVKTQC

[14] = target: Mitogen-activated protein kinase kinase kinase 14 (Homo sapiens) (UniProt Q99558)
[15] = target: Phosphatidylinositol 4,5-bisphosphate 3-kinase catalytic subunit beta isoform (Homo sapiens) (UniProt P42338)
[16] = target: T1, Activin receptor type-1 (Homo sapiens) (UniProt Q04771)
T1 sequence (whole entry): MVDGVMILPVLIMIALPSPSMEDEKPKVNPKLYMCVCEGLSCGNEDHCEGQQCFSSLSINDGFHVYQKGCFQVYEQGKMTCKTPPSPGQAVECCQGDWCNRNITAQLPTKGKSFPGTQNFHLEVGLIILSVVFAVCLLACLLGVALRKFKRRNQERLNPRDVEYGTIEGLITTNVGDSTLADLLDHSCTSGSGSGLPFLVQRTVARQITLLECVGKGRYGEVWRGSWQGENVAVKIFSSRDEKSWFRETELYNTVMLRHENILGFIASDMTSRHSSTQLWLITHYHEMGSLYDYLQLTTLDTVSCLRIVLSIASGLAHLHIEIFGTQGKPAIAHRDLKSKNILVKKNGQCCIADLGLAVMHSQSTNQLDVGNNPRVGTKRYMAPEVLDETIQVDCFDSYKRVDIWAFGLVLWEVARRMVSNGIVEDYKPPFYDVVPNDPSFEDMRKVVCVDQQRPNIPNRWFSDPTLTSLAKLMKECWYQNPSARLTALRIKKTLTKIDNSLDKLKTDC

[17] = target: Cyclin-dependent kinase 13 (Homo sapiens) (UniProt Q14004)
[18] = target: Serine/threonine-protein kinase WNK3 (Homo sapiens) (UniProt Q9BYP7)
[19] = target: Mitogen-activated protein kinase 8 (Homo sapiens) (UniProt P45983)
[20] = target: Ribosomal protein S6 kinase alpha-4 (Homo sapiens) (UniProt O75676)
Ribosomal protein S6 kinase alpha-4 (Homo sapiens), sequence (O75676 whole entry, looked up): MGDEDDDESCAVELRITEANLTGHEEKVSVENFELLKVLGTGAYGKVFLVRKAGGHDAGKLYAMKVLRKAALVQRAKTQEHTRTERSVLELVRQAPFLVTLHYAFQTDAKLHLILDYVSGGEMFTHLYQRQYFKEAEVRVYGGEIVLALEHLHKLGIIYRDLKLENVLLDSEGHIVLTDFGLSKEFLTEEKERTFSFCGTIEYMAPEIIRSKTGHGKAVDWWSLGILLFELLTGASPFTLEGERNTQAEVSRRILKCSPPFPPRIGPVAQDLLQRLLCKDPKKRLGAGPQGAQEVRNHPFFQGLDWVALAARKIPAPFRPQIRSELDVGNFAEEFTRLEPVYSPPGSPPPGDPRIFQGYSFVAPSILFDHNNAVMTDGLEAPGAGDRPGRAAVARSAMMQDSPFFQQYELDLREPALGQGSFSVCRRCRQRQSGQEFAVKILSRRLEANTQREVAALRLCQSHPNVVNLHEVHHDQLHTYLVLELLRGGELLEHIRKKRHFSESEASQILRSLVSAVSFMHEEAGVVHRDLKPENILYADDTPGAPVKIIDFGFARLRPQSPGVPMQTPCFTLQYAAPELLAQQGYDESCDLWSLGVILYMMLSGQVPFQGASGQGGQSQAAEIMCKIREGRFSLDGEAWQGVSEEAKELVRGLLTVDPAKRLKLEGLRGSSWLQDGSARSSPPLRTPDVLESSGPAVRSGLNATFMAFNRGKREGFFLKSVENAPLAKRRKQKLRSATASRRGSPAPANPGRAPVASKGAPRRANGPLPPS

[21] = target: T2, MAP/microtubule affinity-regulating kinase 4 (Homo sapiens) (UniProt Q96L34)
T2 sequence (whole entry): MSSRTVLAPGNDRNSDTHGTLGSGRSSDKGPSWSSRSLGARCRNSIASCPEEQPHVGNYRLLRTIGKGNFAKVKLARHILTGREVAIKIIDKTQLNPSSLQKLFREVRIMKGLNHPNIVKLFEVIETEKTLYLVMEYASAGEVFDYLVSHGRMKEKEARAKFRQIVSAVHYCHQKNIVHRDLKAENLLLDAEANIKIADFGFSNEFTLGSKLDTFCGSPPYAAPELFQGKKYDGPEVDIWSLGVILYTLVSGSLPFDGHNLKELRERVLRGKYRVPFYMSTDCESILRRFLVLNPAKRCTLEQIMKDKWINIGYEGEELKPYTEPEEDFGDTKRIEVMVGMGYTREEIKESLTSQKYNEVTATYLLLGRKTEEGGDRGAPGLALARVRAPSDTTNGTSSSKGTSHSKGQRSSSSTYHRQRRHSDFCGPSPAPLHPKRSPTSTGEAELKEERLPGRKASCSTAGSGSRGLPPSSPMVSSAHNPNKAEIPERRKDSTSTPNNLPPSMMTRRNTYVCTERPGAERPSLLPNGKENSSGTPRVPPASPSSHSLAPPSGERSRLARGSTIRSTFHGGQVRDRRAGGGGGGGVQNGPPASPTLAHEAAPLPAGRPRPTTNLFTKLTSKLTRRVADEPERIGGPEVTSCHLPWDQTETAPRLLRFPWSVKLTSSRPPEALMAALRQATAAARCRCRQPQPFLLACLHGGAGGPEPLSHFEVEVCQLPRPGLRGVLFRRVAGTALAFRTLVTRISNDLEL

[22] = target: RAC-alpha serine/threonine-protein kinase (Homo sapiens) (UniProt P31749)
[23] = Compound concentration 1000.0 nM
[24] = Compound concentration 100.0 nM

Measured: residual activity

Mast/stem cell growth factor receptor Kit (Homo sapiens), sequence (P10721 whole entry): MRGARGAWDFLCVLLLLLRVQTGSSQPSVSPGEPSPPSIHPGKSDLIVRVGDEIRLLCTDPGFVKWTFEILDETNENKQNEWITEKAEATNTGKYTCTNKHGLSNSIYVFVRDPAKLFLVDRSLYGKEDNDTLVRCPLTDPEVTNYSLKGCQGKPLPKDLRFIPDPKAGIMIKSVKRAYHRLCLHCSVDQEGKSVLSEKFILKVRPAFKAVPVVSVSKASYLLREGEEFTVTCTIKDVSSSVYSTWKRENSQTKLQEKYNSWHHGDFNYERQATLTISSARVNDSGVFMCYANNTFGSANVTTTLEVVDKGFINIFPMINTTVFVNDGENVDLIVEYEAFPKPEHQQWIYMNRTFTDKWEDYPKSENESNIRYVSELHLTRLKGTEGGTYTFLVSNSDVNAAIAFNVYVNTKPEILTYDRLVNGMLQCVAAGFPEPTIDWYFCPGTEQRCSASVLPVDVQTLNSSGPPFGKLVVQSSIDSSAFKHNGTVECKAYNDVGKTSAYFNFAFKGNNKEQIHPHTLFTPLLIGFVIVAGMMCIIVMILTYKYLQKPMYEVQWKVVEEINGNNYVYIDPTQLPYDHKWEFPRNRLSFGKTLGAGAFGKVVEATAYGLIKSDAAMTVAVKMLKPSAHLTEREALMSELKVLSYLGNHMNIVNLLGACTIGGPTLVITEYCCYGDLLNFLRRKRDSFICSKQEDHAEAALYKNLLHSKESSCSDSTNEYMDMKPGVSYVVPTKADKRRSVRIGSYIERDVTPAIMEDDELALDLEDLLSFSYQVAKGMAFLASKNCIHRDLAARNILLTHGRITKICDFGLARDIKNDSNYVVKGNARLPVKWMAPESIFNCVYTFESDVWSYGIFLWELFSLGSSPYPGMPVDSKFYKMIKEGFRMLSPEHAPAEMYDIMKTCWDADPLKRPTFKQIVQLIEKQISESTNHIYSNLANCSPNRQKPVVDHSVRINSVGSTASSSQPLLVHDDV

C[C@@H]1CN(c2cc(-c3nn(C)c4ccc(OC5(C)CC5)cc34)ncn2)C[C@H](C)O1 [MLi-2-NC]
inactive: [1]; [23] 100% | [2]; [23] 100% | [3]; [23] 58% | [4]; [23] 100% | [5]; [23] 100% | [6]; [23] 84% | [7]; [23] 100% | [8]; [23] 100% | [9]; [23] 71% | [10]; [23] 76% | [11]; [23] 92% | [12]; [23] 75% | [13]; [23] 100% | [14]; [23] 100% | [15]; [23] 100% | [16]; [23] 96% | [17]; [23] 86% | [18]; [23] 91% | [19]; [23] 82% | [20]; [23] 81% | [21]; [23] 100% | [22]; [23] 100%

C[C@@H]1CN(c2cc(-c3n[nH]c4ccc(OC5(C)CC5)cc34)ncn2)C[C@H](C)O1 [MLi-2]
inactive: [1]; [24] 100% | [2]; [24] 100% | [3]; [24] 68% | [4]; [24] 82% | [5]; [24] 100% | [6]; [24] 97% | [7]; [24] 95% | [8]; [24] 73% | [9]; [24] 77% | [10]; [24] 90% | [11]; [24] 100% | [12]; [24] 82% | [13]; [24] 79% | [14]; [24] 64% | [15]; [24] 59% | [16]; [24] 90% | [17]; [24] 84% | [18]; [24] 73% | [19]; [24] 63% | [20]; [24] 75% | [21]; [24] 100% | [22]; [24] 87%

Reference: ChEMBL document CHEMBL4507291 (2021)
